Data from US7482468B2, “Imidazole and benzimidazole derivatives useful as histamine H3 antagonists” (Schering Corporation, priority 2005, dated 2009).

Target: H3 receptors (Cavia porcellus, UniProt Q9JI35)
Test: biochemical
Description: General Procedure for H3-Receptor Binding Assay
The source of the H3 receptors in this experiment was guinea pig brain. The animals weighed 400-600 g. The brain tissue was homogenized with a solution of 50 mM Tris, pH 7.5. The final concentration of tissue in the homogenization buffer was 10% w/v. The homogenates were centrifuged at 1,000×g for 10 min. in order to remove clumps of tissue and debris. The resulting supernatants were then centrifuged at 50,000×g for 20 min. in order to sediment the membranes, which were next washed three times in homogenization buffer (50,000×g for 20 min. each). The membranes were frozen and stored at −70° C. until needed.
All compounds to be tested were dissolved in DMSO and then diluted into the binding buffer (50 mM Tris, pH 7.5) such that the final concentration was 2 μg/ml with 0.1% DMSO. Membranes were then added (400 μg of protein) to the reaction tubes. The reaction was started by the addition of 3 nM [^3H]R-α-methyl histamine (8.8 Ci/mmol) or 3 nM [^3H]N^α-methyl histamine (80 Ci/mmol) and continued under incubation at 30° C. for 30 min. Bound ligand was separated from unbound ligand by filtration, and the amount of radioactive ligand bound to the membranes was quantitated by liquid scintillation spectrometry.

Chain of H3 receptors (Q9JI35 whole entry): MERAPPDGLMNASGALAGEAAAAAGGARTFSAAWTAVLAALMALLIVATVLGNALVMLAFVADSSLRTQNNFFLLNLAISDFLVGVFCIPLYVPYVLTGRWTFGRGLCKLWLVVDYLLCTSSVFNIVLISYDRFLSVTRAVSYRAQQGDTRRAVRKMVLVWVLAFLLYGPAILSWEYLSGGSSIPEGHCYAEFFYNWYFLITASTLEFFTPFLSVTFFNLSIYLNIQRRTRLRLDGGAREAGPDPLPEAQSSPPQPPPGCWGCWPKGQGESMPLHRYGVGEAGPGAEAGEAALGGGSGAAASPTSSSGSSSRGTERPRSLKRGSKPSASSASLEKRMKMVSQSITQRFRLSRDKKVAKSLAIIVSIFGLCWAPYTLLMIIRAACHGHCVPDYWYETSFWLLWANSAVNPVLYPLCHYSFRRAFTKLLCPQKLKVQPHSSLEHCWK

Fc1ccc2c(c1)nc(-c1ccccn1)n2-c1ccc(OCCCN2CCCCC2)cc1 [Example 1EE]
Ki: 1 nM
